Measurements published in patent US7049292B2, “Therapeutically effective peptides related to preproinsulin” (King's College London, priority 2004, dated 2006).
“And” between values parts separate entries of the source, which are not always exact repeats. Equal values may be shown once. Read-outs that look alike come from different tables or passages of the source. Ends that are not written are not given here.

Experiments:
[1] = system: pathogenic (IFN-γ) CD4+ T lymphocytes in PBMCs; test: IFN-γ ELISPOT analysis of PBMCs cultured with peptide; format: cell-based, human; details: for Prevalence of IFN-γ responses, Totals (%) / Prevalence of IFN-γ responses, Totals (responders/tested): positive response SI≧3.0; for IFN-γ response, stimulation index (SI): PBMCs, peptide 10 μM
[2] = system: anti-inflammatory (IL-10 secreting) CD4+ T lymphocytes in PBMCs; format: cell-based, human; details: for IL-10 response, stimulation index (SI): PBMCs, peptide 10 μM
[3] = T1DM patients with HLA-DR4 alleles
[4] = T1DM patients with non-DR4 alleles
[5] = non-diabetic control subject C9
[6] = patient #3, T1DM with HLA-DR4 alleles
[7] = patient #5, T1DM with HLA-DR4 alleles
[8] = patient #6, T1DM with HLA-DR4 alleles
[9] = patient #24, T1DM with HLA-DR4 alleles
[10] = patient #27, T1DM with non-DR4 alleles
[11] = non-diabetic control subject C4
[12] = non-diabetic control subject C8
[13] = patient #35, T1DM with non-DR4 alleles
[14] = patient #4, T1DM with HLA-DR4 alleles
[15] = patient #13, T1DM with HLA-DR4 alleles
[16] = patient #19, T1DM with HLA-DR4 alleles
[17] = non-diabetic control subject C13
[18] = patient #26, T1DM with non-DR4 alleles
[19] = patient #30, T1DM with non-DR4 alleles
[20] = non-diabetic control subjects, positive response SI≧3.0
[21] = patient #28, T1DM with non-DR4 alleles
[22] = patient #10, T1DM with HLA-DR4 alleles
[23] = patient #12, T1DM with HLA-DR4 alleles

Substance | Prevalence of IFN-γ responses, Totals (%) [1, 3] | Prevalence of IFN-γ responses, Totals (responders/tested) [1, 3] | Prevalence of IFN-γ responses, Totals (%) [1, 4] | Prevalence of IFN-γ responses, Totals (responders/tested) [1, 4] | Prevalence of IFN-γ responses, Totals (%) ([1]; non-diabetic control subjects) | Prevalence of IFN-γ responses, Totals (responders/tested) ([1]; non-diabetic control subjects) | IFN-γ response, stimulation index (SI) [1, 6] | IFN-γ response, stimulation index (SI) [1, 8] | IFN-γ response, stimulation index (SI) [1, 9] | Prevalence of IL-10 responses, Totals (responders/tested) [2] | IL-10 response, stimulation index (SI) [2, 11] | IL-10 response, stimulation index (SI) [2, 12] | IL-10 response, stimulation index (SI) [2, 6] | IL-10 response, stimulation index (SI) [2, 9] | IFN-γ response, stimulation index (SI) [1, 14] | IFN-γ response, stimulation index (SI) [1, 16] | IL-10 response, stimulation index (SI) [2, 17] | IL-10 response, stimulation index (SI) [2, 10] | IFN-γ response, stimulation index (SI) [1, 18] | Prevalence of IL-10 responses, Totals (responders/tested) [2, 20] | other results
652–80: IA-2 peptide sequence, residues 652–80 (SRVSSVSSQFSDAAQASPSSHSSTPSWCE; UniProt Q16849 652-680, looked up, fragment) | (24) % | 6/25 | (9) % | 1/11 | (7) % | 1/14 | 3.0 | 23.2 | 36.0 | 2/17 and 1/7 and 4/14 | 5.3 | 4.0 | 4.8 | 4.5 | – | – | – | – | – | – | IFN-γ response, stimulation index (SI) [1, 5]: 3.8; IFN-γ response, stimulation index (SI) ([1]; patient #2, T1DM with HLA-DR4 alleles): 3.1; IFN-γ response, stimulation index (SI) [1, 7]: 6.2; IFN-γ response, stimulation index (SI) ([1]; patient #7, T1DM with HLA-DR4 alleles): 6.4; IFN-γ response, stimulation index (SI) [1, 10]: 16.7; IL-10 response, stimulation index (SI) [2, 5]: 3.5; IL-10 response, stimulation index (SI) ([2]; non-diabetic control subject C10): 8.4; IL-10 response, stimulation index (SI) [2, 13]: 8.0
793–817: IA-2 peptide sequence, residues 793–817 (DFWQMVWESGCTVIVMLTPLVEDGV; UniProt Q16849 793-817, looked up, fragment) | (12) % | 3/25 | (0) % | 0/11 | (0) % | 0/14 | 9.7 | – | – | 1/17 and 1/7 and 2/14 | 3.4 | – | 3.0 | – | 3.5 | 19.0 | 3.5 | 34.0 | – | – | IFN-γ response, stimulation index (SI) [1, 15]: 4.1
955–76: IA-2 peptide sequence, residues 955–76 (SKDQFEFALTAVAEEVNAILKA; UniProt Q16849 955-976, looked up, fragment) | (16) % | 4/25 | (18) % | 2/11 | (0) % | 0/14 | 4.7 | 11.2 | 38.0 | 2/17 and 1/7 | 5.6 | 15.0 | 3.0 | 29.5 | 3.0 | 3.0 | – | 4.0 | 5.0 | 3/14 | IFN-γ response, stimulation index (SI) [1, 19]: 4.7; IL-10 response, stimulation index (SI) ([2]; non-diabetic control subject C11): 5.2
GGGPGAGSLQPLALEGSLQK [C13-C32, preproinsulin peptide, residues C13-C32] | (12) % | 2/17 | (25) % | 2/8 | (0) % | 0/14 | – | 8.6 | – | – | – | – | – | – | – | – | – | – | – | – | IFN-γ response, stimulation index (SI) [1, 7]: 3.8; IFN-γ response, stimulation index (SI) [1, 21]: 11.5; IFN-γ response, stimulation index (SI) ([1]; patient #29, T1DM with non-DR4 alleles): 4.7; Prevalence of IL-10 responses, Totals (responders/tested) ([2]; listed as C13–32): 1/12 and 1/5 and 1/13
GSLQPLALEGSLQKRGIV [C19-A3] | (47) % | 8/17 | (38) % | 3/8 | (0) % | 0/14 | 10.7 | 63.6 | – | 1/12 and 2/5 | – | 29.0 | 10.21 | – | 3.5 | – | 5.0 | 7.0 | 3.3 | 3/13 | IFN-γ response, stimulation index (SI) ([1]; patient #8, T1DM with HLA-DR4 alleles): 3.0; IFN-γ response, stimulation index (SI) ([1]; patient #9, T1DM with HLA-DR4 alleles): 4.6; IFN-γ response, stimulation index (SI) [1, 22]: 5.0; IFN-γ response, stimulation index (SI) ([1]; patient #11, T1DM with HLA-DR4 alleles): 3.3; IFN-γ response, stimulation index (SI) [1, 23]: 10.7; IFN-γ response, stimulation index (SI) [1, 21]: 5.0; IFN-γ response, stimulation index (SI) [1, 19]: 5.7; IL-10 response, stimulation index (SI) ([2]; non-diabetic control subject C5): 10.3; IL-10 response, stimulation index (SI) ([2]; patient #33, T1DM with non-DR4 alleles): 3.1
KLKVESSPSRSDYINASPIIEHDP [752–75, IA-2 peptide eluted from HLA-DR4] | (32) % | 8/25 | (9) % | 1/11 | (0) % | 0/14 | 4.3 | – | – | – | – | 16.0 | 16.0 | 15.0 | – | 7.0 | – | 33.0 | 3.0 | – | IFN-γ response, stimulation index (SI) [1, 22]: 12.3; IFN-γ response, stimulation index (SI) [1, 23]: 3.3; IFN-γ response, stimulation index (SI) [1, 15]: 3.4; IFN-γ response, stimulation index (SI) ([1]; patient #20, T1DM with HLA-DR4 alleles): 3.9; IFN-γ response, stimulation index (SI) ([1]; patient #23, T1DM with HLA-DR4 alleles): 3.6; Prevalence of IL-10 responses, Totals (responders/tested) ([2]; T1DM patients with HLA-DR4 alleles, positive response SI≧3.0): 3/17; Prevalence of IL-10 responses, Totals (responders/tested) ([2]; listed as 725–75): 2/7 and 2/14; IL-10 response, stimulation index (SI) ([2]; non-diabetic control subject C3): 8.7; IL-10 response, stimulation index (SI) [2, 23]: 3.79; IL-10 response, stimulation index (SI) [2, 13]: 4.0
LAKEWQALCAYQAEPNTCATAQGEGNIK [709–36, IA-2 peptide eluted from HLA-DR4] | (12) % | 3/25 | (0) % | 0/11 | (0) % | 0/14 | – | 9.2 | 10.5 | 2/17 and 1/7 | 3.6 | – | – | 9.0 | – | 5.0 | 3.8 | 7.0 | – | 3/14 | IL-10 response, stimulation index (SI) ([2]; non-diabetic control subject C6): 3.2; IL-10 response, stimulation index (SI) [2, 7]: 3.5
